Assay results: patent US10208047B2, “Tertiary alcohol imidazopyrazine BTK inhibitors” (Merck Sharp & Dohme Corp., priority 2014, dated 2019)

Target: BTK enzyme (recombinant full-length BTK, hBTK) (Homo sapiens (Human), UniProt Q06187)
Assay: Btk enzyme activity assay, LANCE TR-FRET
Assay type: biochemical
Conditions: 50 pM hBTK, 2 μM biotin-A5-peptide, 25 μM ATP, 60 minute compound & enzyme incubation, compound range 1 μM to 0.017 nM, read-out: BTK binding IC50
Experimental: Btk Enzyme Activity Assay Methods
BTK enzymatic activity was determined with the LANCE (Lanthanide Chelate Excite) TR-FRET (Time-resolved fluorescence resonance energy transfer) assay. In this assay, the potency (IC50) of each compound was determined from an eleven point (1:3 serial dilution; final compound concentration range in assay from 1 μM to 0.017 nM) titration curve using the following outlined procedure. To each well of a black non-binding surface Corning 384-well microplate (Corning Catalog #3820), 5 nL of compound (2000 fold dilution in final assay volume of 10 μL) was dispensed, followed by the addition of 7.5 μL of 1× kinase buffer (50 mM Hepes 7.5, 10 mM MgCl2, 0.01% Brij-35, 1 mM EGTA, 0.05% BSA & 1 mM DTT) containing 5.09 pg/μL (66.67 pM) of BTK enzyme (recombinant protein from baculovirus-transfected Sf9 cells: full-length BTK, 6HIS-tag cleaved). Following a 60 minute compound & enzyme incubation, each reaction was initiated by the addition of 2.5 μL 1× kinase buffer containing 8 μM biotinylated “A5” peptide (Biotin-EQEDEPEGDYFEWLE-NH2) (SEQ.ID.NO.: 1), and 100 μM ATP. The final reaction in each well of 10 μL consists of 50 pM hBTK, 2 μM biotin-A5-peptide, and 25 μM ATP. Phosphorylation reactions were allowed to proceed for 120 minutes. Reactions were immediately quenched by the addition of 20 uL of 1× quench buffer (15 mM EDTA, 25 mM Hepes 7.3, and 0.1% Triton X-100) containing detection reagents (0.626 nM of LANCE-Eu-W1024-anti-phosphoTyrosine antibody, PerkinElmer and 86.8 nM of Streptavidin-conjugated Dylight 650, Dyomics/ThermoFisher Scientific). After 60 minutes incubation with detection reagents, reaction plates were read on a PerkinElmer EnVision plate reader using standard TR-FRET protocol. Briefly, excitation of donor molecules (Eu-chelate:anti-phospho-antibody) with a laser light source at 337 nm produces energy that can be transferred to Dylight-650 acceptor molecules if this donor:acceptor pair is within close proximity. Fluorescence intensity at both 665 nm (acceptor) and 615 nm (donor) are measured and a TR-FRET ratio calculated for each well (acceptor intensity/donor intensity). IC50 values were determined by 4 parameter robust fit of TR-FRET ratio values vs. (Log10) compound concentrations.

BTK enzyme (recombinant full-length BTK, hBTK), sequence (Q06187 whole entry): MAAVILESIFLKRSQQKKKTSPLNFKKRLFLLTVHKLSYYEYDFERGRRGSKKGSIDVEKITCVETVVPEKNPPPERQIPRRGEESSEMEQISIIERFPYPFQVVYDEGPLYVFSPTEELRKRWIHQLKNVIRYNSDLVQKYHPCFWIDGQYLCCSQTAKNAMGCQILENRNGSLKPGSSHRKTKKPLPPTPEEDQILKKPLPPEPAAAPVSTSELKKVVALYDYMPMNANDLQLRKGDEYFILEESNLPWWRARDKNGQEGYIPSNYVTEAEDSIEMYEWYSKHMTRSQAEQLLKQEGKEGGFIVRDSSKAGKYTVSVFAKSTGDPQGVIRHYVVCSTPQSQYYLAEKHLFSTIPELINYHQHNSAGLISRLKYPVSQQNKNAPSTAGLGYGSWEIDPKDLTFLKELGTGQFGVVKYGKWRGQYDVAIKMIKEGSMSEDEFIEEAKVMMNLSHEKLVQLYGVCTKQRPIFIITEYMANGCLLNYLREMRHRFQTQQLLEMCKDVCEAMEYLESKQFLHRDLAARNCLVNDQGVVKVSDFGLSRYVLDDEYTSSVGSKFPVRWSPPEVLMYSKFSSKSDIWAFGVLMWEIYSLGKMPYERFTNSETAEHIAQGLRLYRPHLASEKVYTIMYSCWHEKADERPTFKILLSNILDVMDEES

Structure (SMILES) | IC50
CC(C)[C@@]1(C(=O)O)CC[C@@H](c2nc(-c3ccc([C@@](C)(O)c4cccc(C(F)F)c4)cc3)c3c(N)ncc(Cl)n23)C1 [Example 32, (1R,3R)-3-[8-amino-5-chloro-1-(4-{(1R)-1-[3-(difluoromethyl)phenyl]-1-hydroxyethyl}phenyl)imidazo[1,5-a]pyrazin-3-yl]-1-(1-methylethyl)cyclopentanecarboxylic acid] | 41.8 nM
CC(C)[C@]1(C(=O)O)CC[C@H](c2nc(-c3ccc([C@@](C)(O)c4cccc(C(F)(F)F)c4)cc3)c3c(N)nccn23)C1 [Example 5, (1S,3S)-3-[8-amino-1-(4-{(1R)-1-hydroxy-1-[3-(trifluoromethyl)phenyl]ethyl}phenyl)imidazo[1,5-a]pyrazin-3-yl]-1-(1-methylethyl)cyclopentanecarboxylic acid] | 19 nM
C[C@@](O)(c1ccc(-c2nc(C34CCC(C(=O)O)(CC3(F)F)C(F)(F)C4)n3ccnc(N)c23)cc1)c1cccc(C(F)(F)F)c1 (stereo partly drawn) [Example 12, 4-[8-amino-1-(4-{(1R)-1-hydroxy-1-[3-(trifluoromethyl)phenyl]ethyl}phenyl)imidazo[1,5-a]pyrazin-3-yl]-2,2,5,5-tetrafluorobicyclo[2.2.2]octane-1-carboxylic acid] | 17.3 nM
C[C@@]1(C(=O)O)CC[C@](C)(c2nc(-c3ccc([C@@](C)(O)c4cccc(C(F)(F)F)c4)cc3)c3c(N)nccn23)C1 [Example 17, (1R,3S)-3-[8-amino-1-(4-{(1R)-1-hydroxy-1-[3-(trifluoromethyl)phenyl]ethyl}phenyl)imidazo[1,5-a]pyrazin-3-yl]-1,3-dimethylcyclopentanecarboxylic acid] | 55.1 nM
C[C@]1(C(=O)O)CC[C@@](C)(c2nc(-c3ccc([C@@](C)(O)c4cccc(C(F)(F)F)c4)cc3)c3c(N)nccn23)C1 [Example 18, (1S,3R)-3-[8-amino-1-(4-{(1R)-1-hydroxy-1-[3-(trifluoromethyl)phenyl]ethyl}phenyl)imidazo[1,5-a]pyrazin-3-yl]-1,3-dimethylcyclopentanecarboxylic acid] | 178 nM
C[C@](O)(c1ccc(-c2nc(C34CCC(C(=O)O)(CC3)CC4)n3ccnc(N)c23)cc1)c1cccc(C(F)(F)F)c1 [Example 2, 4-[8-amino-1-(4-{(1S)-1-hydroxy-1-[3-(trifluoromethyl)phenyl]ethyl}phenyl)imidazo[1,5-a]pyrazin-3-yl]bicyclo[2.2.2]octane-1-carboxylic acid] | 5.8 nM
C[C@@](O)(c1ccc(-c2nc([C@@H]3C[C@@H]4[C@H](C3)[C@@H]4C(=O)O)n3ccnc(N)c23)cc1)c1cccc(C(F)(F)F)c1 [Example 35, (1R,3r,5S,6s)-3-[8-amino-1-(4-{(1R)-1-hydroxy-1-[3-(trifluoromethyl)phenyl]ethyl}phenyl)imidazo[1,5-a]pyrazin-3-yl]bicyclo[3.1.0]hexane-6-carboxylic acid] | 15.7 nM
CC(C)[C@H]1CC[C@@H](c2nc(-c3ccc([C@@](C)(O)c4cccc(C(F)(F)F)c4)cc3)c3c(N)nccn23)C[C@H]1C(=O)O [Example 21, (1R,2R,5R)-5-[8-amino-1-(4-{(1R)-1-hydroxy-1-[3-(trifluoromethyl)phenyl]ethyl}phenyl)imidazo[1,5-a]pyrazin-3-yl]-2-(1-methylethyl)cyclohexanecarboxylic acid] | 56.1 nM
CC(C)[C@@]1(C(=O)O)CCC[C@H](c2nc(-c3ccc([C@](C)(O)c4cccc(C(F)(F)F)c4)cc3)c3c(N)nccn23)C1 [Example 15, (1R,3S)-3-[8-amino-1-(4-{(1S)-1-hydroxy-1-[3-(trifluoromethyl)phenyl]ethyl}phenyl)imidazo[1,5-a]pyrazin-3-yl]-1-(1-methylethyl)cyclohexanecarboxylic acid] | 104 nM
CC1(C(=O)O)CCC(C)(c2nc(-c3ccc([C@@](C)(O)c4cccc(C(F)F)c4)cc3)c3c(N)nccn23)CC1 (stereo partly drawn) [Example 33, 4-[8-amino-1-(4-{(1R)-1-[3-(difluoromethyl)phenyl]-1-hydroxyethyl}phenyl)imidazo[1,5-a]pyrazin-3-yl]-1,4-dimethylcyclohexanecarboxylic acid] | 11.4 nM
C[C@]1(C(=O)O)CC[C@](C)(c2nc(-c3ccc([C@@](C)(O)c4cccc(C(F)(F)F)c4)cc3)c3c(N)nccn23)C1 [Example 16, (1S,3S)-3-[8-amino-1-(4-{(1R)-1-hydroxy-1-[3-(trifluoromethyl)phenyl]ethyl}phenyl)imidazo[1,5-a]pyrazin-3-yl]-1,3-dimethylcyclopentanecarboxylic acid] | 7.6 nM
CC(C)[C@]1(C(=O)O)CC[C@@H](c2nc(-c3ccc([C@@](C)(O)c4cccc(C(F)F)c4)cc3)c3c(N)ncc(Cl)n23)C1 [Example 29, (1S,3R)-3-[8-amino-5-chloro-1-(4-{(1R)-1-[3-(difluoromethyl)phenyl]-1-hydroxyethyl}phenyl)imidazo[1,5-a]pyrazin-3-yl]-1-(1-methylethyl)cyclopentanecarboxylic acid] | 2.8 nM
C[C@@](O)(c1ccc(-c2nc(C34CCC(C(=O)O)(CC3)CC4)n3ccnc(N)c23)cc1)c1cccc(C(F)(F)F)c1 [Example 3, 4-[8-amino-1-(4-{(1R)-1-hydroxy-1-[3-(trifluoromethyl)phenyl]ethyl}phenyl)imidazo[1,5-a]pyrazin-3-yl]bicyclo[2.2.2]octane-1-carboxylic acid] | 775 nM
CCOc1cc(C(C)(O)c2cccc(C)c2)ccc1-c1nc(C23CCC(C(=O)O)(CC2)CC3)n2ccnc(N)c12 (stereo not drawn) [Example 20, 4-(8-amino-1-{2-ethoxy-4-[1-hydroxy-1-(3-methylphenyl)ethyl]phenyl}imidazo[1,5-a]pyrazin-3-yl)bicyclo[2.2.2]octane-1-carboxylic acid] | 136 nM
CC1(C(=O)O)CCC(C)(c2nc(-c3ccc([C@@](C)(O)c4cccc(C(F)(F)F)c4)cc3)c3c(N)nccn23)CC1 (stereo partly drawn) [Example 1, (R)-4-(8-amino-1-(4-(1-hydroxy-1-(3-(trifluoromethyl)phenyl)ethyl)phenyl)imidazo[1,5-a]pyrazin-3-yl)-1,4-dimethylcyclohexanecarboxylic acid] | 39.4 nM
